“Also recorded” adds a separate entry of the source.
Tests used:
[1] = tested on: Acyrthosiphon pisum aphids; test: Aphid fecundity (offspring production); assay type: in vivo; settings: 10 or 100 uM pantothenol
Protocol: (§1) In addition, the developmental stage (1st, 2nd, 3rd, 4th, 5th instar) was determined daily throughout the experiment. Once an aphid reached the 4th instar stage, they were given their own artificial feeding system in a deep petri dish so that fecundity could be monitored once they reached adulthood.
For adult aphids, new nymphs were counted daily and then discarded. At the end of the experiments, fecundity was determined as the mean number of offspring produced daily once the aphid reached adulthood. Pictures of aphids were taken throughout the experiment to evaluate size differences between treatment groups.
as §1, with “5th, and 5R (5th that has reproduced)” for “5th”
For adult aphids, new nymphs were counted daily and then discarded. At the end of the experiments, fecundity was measured in two ways: 1) the mean day at which the first offspring for the treatment group was determined and 2) the mean number of offspring produced daily once the aphid reached adulthood. […]
In addition, the developmental stage (1st, 2nd, 3rd, 4th, 5th instar) was determined daily throughout the experiment. […]

Buchnera = test: qPCR of Buchnera/aphid DNA copy numbers (symbiont titer); assay type: in vivo, Buchnera aphidicola; settings: 10 or 100 uM pantothenol, through plants; 8 days
Protocol: (§2) After 7 days of treatment, DNA was extracted from multiple aphids from each treatment group. Briefly, the aphid body surface was sterilized by dipping the aphid into a 6% bleach solution for approximately 5 seconds. Aphids were then rinsed in sterile water and DNA was extracted from each individual aphid using a DNA extraction kit (Qiagen, DNeasy kit) according to manufacturer's instructions. DNA concentration was measured using a nanodrop nucleic acid quantification, and Buchnera and aphid DNA copy numbers were measured by qPCR.
After 6 days of treatment, DNA was extracted from multiple aphids from each treatment group and qPCR for quantifying Buchnera levels was done as described in the previous Example.
as §2, with “8” for “7”
as §2, with “After 8” for “After 7”, “from the remaining” for “from multiple”, “aphids in” for “aphids from”
as §2, with “Briefly,” for “After 7 days of treatment, DNA was extracted from multiple aphids from each treatment group. Briefly,”
as §2, with “Briefly,” for “After 7 days of treatment, DNA was extracted from multiple aphids from each treatment group. Briefly,”
as §2, with “3” for “7”, “the remaining living” for “multiple”
as §2, with “After 5” for “After 7”, “from the remaining” for “from multiple”, “aphids in” for “aphids from”
At 5 days post-treatment, DNA was extracted from several aphids in each treatment group. Briefly, the aphid body surface was sterilized by dipping the aphid into a 6% bleach solution for approximately 5 seconds.

[2] = tested on: Acyrthosiphon pisum aphids; test: Aphid developmental stage monitoring; assay type: in vivo
Protocol: as §1
Each treatment group received approximately the same number of individuals from each of the collection plant. For each treatment, 20 aphids were placed onto each leaf. Aphids were monitored daily for survival and dead aphids were removed when they were discovered. In addition, the developmental stage (1st, 2nd, 3rd, 4th, 5th instar, and 5R, representing a reproducing 5th instar) was determined daily throughout the experiment. Pictures of aphids were taken throughout the experiment to evaluate size differences between treatment groups.
(Vroma vicia faba from Johnny's Selected Seeds) in a climate-controlled incubator (16 h light/8 h dark photoperiod; 60±5% RH; 25±2° C.). Prior to being used for aphid rearing, fava bean plants were grown in potting soil at 24° C. with 16 h of light and 8 h of darkness. To limit maternal effects or health differences between plants, 5-10 adults from different plants were distributed among 10 two-week-old plants, and allowed to multiply to high density for 5-7 days. […] Aphids were monitored daily for survival and dead aphids were removed from the deep petri dish when they were discovered. In addition, the developmental stage (1st, 2nd, 3rd, 4th, 5th and 5R (5th that has reproduced) instar) was determined daily throughout the experiment.
In addition, the developmental stage (1st, 2nd, 3rd, 4th, 5th, and 5R (5th that has reproduced) instar) was determined daily throughout the experiment.
In addition, the developmental stage (1st, 2nd, 3rd, 4th, 5th, and 5R (5th instar aphids that are reproducing) instar) was determined daily throughout the experiment.
In addition, the developmental stage (1st, 2nd, 3rd, 4th, and 5th instar) was determined daily throughout the experiment.
as §1, with “5th, and 5R (5th that has reproduced)” for “5th”
For each treatment, 30 aphids were placed onto each leaf in triplicate. […] Aphids were monitored daily for survival and dead aphids were removed from the deep petri dish when they were discovered. In addition, the developmental stage (1st, 2nd, 3rd, 4th, 5th, and 5R (5th instar aphids that are reproducing) instar) was determined daily throughout the experiment. […]

In the case of `CC(C)(CO)[C@@H](O)C(=O)NCCCO` [pantothenol], the Aphid reproduction [1] is reported as “loss of reproduction”, the “Buchnera/aphid DNA copies” value (Buchnera) is reported as “did not affect endosymbiotic Buchnera; also recorded: high ratios of Buchnera/aphid DNA copies” and the Aphid development ([2]; eNASCO 1st and 2nd instar, 10 or 100 uM pantothenol in artificial diet without essential amino acids, through plants) is reported as “delayed aphid development; also recorded: Development was delayed”. For the same compound, the Aphid development ([2]; eNASCO first instar, leaf coating, 100 μl of 10 uM pantothenol in 0.025% Silwet L-77) was “did not affect aphid development; also recorded: matured at similar rates up to two days post-treatment”.
